Holding throughout (assay type): cell-based
The subject of assay [1] is FGF-1-induced differentiation of human subcutaneous preadipocytes. Put plainly: PLC inhibition of FGF-1-induced differentiation (G3PDH activity). The following applies: inhibitor present during replication phase, differentiation phase or both, SFM including rosiglitazone. Here is the method:
Human subcutaneous preadipocytes were isolated and subcultured in SCM in the presence and absence of FGF-1 with and without the PLC inhibitor U-73122 (Calbiochem). Cells were then allowed to reach confluence and differentiated using the standard chemically-modified SFM including rosiglitazone in the presence and absence of FGF1 with and without U-73122. Differentiation was assessed by G3PDH activity.

For assay [2], the system named is subcutaneous human preadipocytes gene expression. As to the kind of experiment: Microarray analysis of human preadipocyte gene expression (Affymetrix). The following applies: confluent preadipocytes in SCM+FGF1 vs SCM; change of at least 50% (CV<5%). As for the experimental part:
Total RNA was isolated from confluent subcutaneous human preadipocytes isolated and grown in either SCM (control) or SCM+FGF1. cRNA was prepared and hybridized to chips and subsequently analyzed using the Affymetrix® system. Each treatment was represented by duplicate samples and two independent experiments were performed. Gene expression was considered to be influenced by FGF-1 if expression was consistently (CV<5%) increased or reduced by at least 50%.

Assay [3] relates to human preadipocytes (omental and subcutaneous). Put plainly: Preadipocyte differentiation assessed by G3PDH activity. Particulars: for adipogenic effect of FGF present during replication and/or differentiation (combination treatments): SCM +/- FGF during replication, SFM+rosiglitazone +/- FGF during differentiation, G3PDH activity; for preadipocyte differentiation / adipogenic effect (summary statements): human preadipocytes cultured with the growth factor; for differentiation of human preadipocytes after exposure to growth factor or MVEC-conditioned medium during subculture: subcultured up to 2 months with growth factor or EC-DMEM, differentiated in serum-free medium including 0.10M Rosiglitazone, G3PDH assay at day 21. As for the experimental part: Activity is assessed as previously described (Adams et al. J Clin Invest 100: 3149-53 1998) (Hutley et al in Primary Mesenchymal Cells 1st ed. Kluwer Academic 5: 173-87 2001).
For differentiation experiments, preadipocytes were isolated and subcultured in endothelial cell-conditioned medium (EC-DMEM) or in the presence of growth factor for up to 2 months and then allowed to reach confluence in 6-well plates. Cells were then differentiated in serum-free, chemically modified differentiation medium including 0.10M Rosiglitazone. Differentiation was assessed at day 21 using a standard G3PDH assay.
Human omental and subcutaneous preadipocytes were isolated and subcultured in SCM in the presence and absence of FGF-1 or FGF-2. Upon reaching confluence, the cells were differentiated in standard chemically modified SFM+rosiglitazone in the presence and absence of FGF-1 or FGF-2. Differentiation was assessed by G3PDH activity. […] Presence throughout both processes was additive.

In assay [4] the test system is human omental and subcutaneous preadipocytes. Put plainly: Differentiation of human preadipocytes in serum-containing medium (cytoplasmic lipid accumulation). The following applies: subcultured in SCM+FGF-1, differentiated in SCM plus insulin and (days 1-3) dexamethasone and rosiglitazone; vs SCM alone. The source says:
A standard requirement of human preadipocyte differentiation in vitro is the obligatory withdrawal of serum. This contrasts with the murine adipocyte cell lines (e.g., 3T3-L1) that have high differentiation potential in SCM. It is assumed that the culture system developed for the human cells either induces down-regulation of factors necessary for differentiation, or promotes the expression of anti-differentiative factors (or both). In these experiments human omental and subcutaneous preadipocytes were isolated and subcultured in the presence of FGF-1. Cells were then differentiated in SCM plus insulin and (days 1-3) dexamethasone and rosiglitazone.

Assay [5] has as its system PLCγ2. Put plainly: PLCγ expression in human preadipocytes (indirect immunofluorescence, Western blot). The following applies: grown to confluence in SCM + FGF-1 vs SCM alone; immunofluorescence and Western blot. As for the experimental part: Expression of phospholipase Cγ2 (PLCγ2) protein is analyzed using Western blotting with immunofluorescent labeling procedures using a monoclonal anti-PLCγ2 antibody (Santa Cruz sc-5283).
Human preadipocytes were cultured in SCM+/−FGF-1 in 24-well plates. PLCγ expression was examined by indirect immuno-fluorescence. Non-immune primary and secondary antibody-only controls gave no staining.

Assay [6] concerns human preadipocytes (subcutaneous and omental). Put plainly: Preadipocyte proliferation assay (formazan/MTS colorimetric assay). The following applies: for proliferation of human preadipocytes in response to growth factor: SCM + growth factors at 1 ng/mL for 48 hrs, relative to SCM control, MTS assay. Here is the method:
Subcutaneous and omental preadipocytes and human skin fibroblasts are plated separately at about 1×10^3 cells/well (subconfluent) in 96-well plates in DMEM/Ham's F12 1:1 plus 10% FCS (PA growth medium) and allowed to adhere at 37° C., 5% CO2 for 16-20 hrs. The medium is then changed to EC growth medium which is conditioned (see above) by exposure to either confluent subcutaneous or omental MVEC, human skin fibroblasts (HSF), or wells containing no cells (blank control) (each treatment is done in quadruplicate). In separate experiments subcutaneous and omental PAs are plated as above and subsequently treated with either S MVEC, O MVEC, human dermal EC(CADMEC) conditioned media, fresh EC growth medium, or blank control. After 48 hrs, preadipocyte cell number is assessed using a formazan colorimetric assay (Promega). The water soluble tetrazolium salt 3-(4,5-dimethylthiazol-2-yl)-5-(3-carboxymethoxyphenyl)-2-(4-sulfophenyl)-2H-tetrazolium (MTS) is added to each well at a concentration of 200 μg/mL. After incubation at 37° C. for 4 hrs, absorbance at 490 nm is measured using a Bio-Rad 3550 microplate reader. The validity of this assay is tested in two ways; 1) preadipocytes were plated at 250; 500; 1000; 2000; 4000 cells per well (in quadruplicate) and absorbance is measured at 490 nm; 2) after measurement at A490 nm the cells are subsequently stained with propidium iodide and direct cell counts carried out using fluorescence microscopy.
Preadipocytes were isolated and plated in 96-well plates at 500 cells/well (sub-confluent) in serum containing medium for 12-18 hrs to allow adherence. Cells were then incubated in SCM+growth factors at 1 ng/mL for 48 hrs and a MTS proliferation assay (Promega) was performed.
(In general: Formazan colour is commonly taken as a measure of viable cells.)

“Also recorded” adds a separate entry of the source.

For the molecule `COc1ccc2c(c1)CC[C@@H]1[C@@H]2CC[C@]2(C)[C@@H](NCCCCCCN3C(=O)C=CC3=O)CC[C@@H]12` [U-73122], the “FGF-1-induced differentiation in the presence of PLC inhibitor” value in assay [1] is “significantly impaired”.
“FGF-1: acidic fibroblast growth factor (aFGF), also known as FGF-1”: in assay [2], the C/EBPα gene expression entry is on record as “upregulation”, the FGFR-1 gene expression result is “Up-regulation”, the FGFR-2 gene expression result was “Up-regulation” and the FGFR-3 gene expression result is recorded as “down-regulation”. Further, in assay [2], the PLCγ2 gene expression entry is reported as “Increased expression” and the PPARγ gene expression entry was “upregulation”. Also, the “differentiation potential of preadipocytes grown with purified FGF-1” value in assay [3] (FGF-1 present from the time of isolation, compared with absence of FGF-1 or other MVEC-derived factors, data not shown) is “similar, but not additive, increase in differentiation potential”. Also, in assay [3], the “adipogenic effect of FGF present during replication and/or differentiation (combination treatments)” value was “adipogenic if present either during replication or during differentiation; also recorded: greater adipogenic effect than FGF-2”, the “preadipocyte differentiation / adipogenic effect (summary statements)” value was “significant positive effect on the differentiation; also recorded: dramatically increases potential for subsequent differentiation” and the “differentiation of human preadipocytes after exposure to growth factor or MVEC-conditioned medium during subculture” value is “more pronounced effect than FGF-2; also recorded: marked increase in differentiation”. The “differentiation in the presence of serum (cytoplasmic lipid accumulation)” value in assay [4] is “significant differentiation”. In addition, in assay [5], the “PLCγ2 protein expression in human preadipocytes” value is “increased”. For the same molecule, in assay [6], the “proliferation of human preadipocytes in response to growth factor” value is on record as “marked increase in proliferation”. Also, in assay [6] (human preadipocytes cultured with the growth factor), the “preadipocyte growth and replication (summary statements)” value was “markedly promoted their growth and replication; also recorded: promotes human preadipocyte replication”.
FGF-2: basic FGF (also known as FGF-2): in assay [3], the “adipogenic effect of FGF present during replication and/or differentiation (combination treatments)” value is recorded as “adipogenic if present either during replication or during differentiation”, the “preadipocyte differentiation / adipogenic effect (summary statements)” value is “pro-adipogenic effect” and the “differentiation of human preadipocytes after exposure to growth factor or MVEC-conditioned medium during subculture” value is on record as “greater that the effect seen with IGF-1; also recorded: marked increase in differentiation”. Moreover, the “proliferation of human preadipocytes in response to growth factor” value in assay [6] is “marked increase in proliferation”.

These data come from patent US20140221455A1, “DIFFERENTIATION MODULATING AGENTS AND USES THEREFOR” (Verva Pharmaceuticals, Inc., priority 2002, published 2014).
